Like-named read-outs stand apart in the source and are kept apart here.
Columns and labels:
HepG2 cell line [1] = experiment: MTT anti-proliferative assay, HepG2; format: cell-based; settings: Homo sapiens, 48 h, three independent experiments, read-out: In vitro cytotoxicity IC50, HepG2
Procedure: (§1) In vitro antiproliferative activities of the target molecules were assessed against two human cancer cell lines namely, hepatocellular carcinoma (HepG2) and colorectal carcinoma (HCT-116) using MTT assay.
(§2) The anti-proliferative activity of the synthesized compounds was assessed using MTT assay protocol. A panel of human cancer cell lines namely, colorectal carcinoma (HCT-116) and hepatocellular carcinoma (HepG2) was used in this test. Doxorubicin was used as a positive control. The cell lines were got from ATCC (American Type Culture Collection) via the Holding company for biological products and vaccines (VACSERA, Cairo, Egypt). The anti-proliferative activities of the tested compounds were determined quantitatively as follows:
(§3) At first, the cells were cultured into a medium of RPMI-1640 with 10% fetal bovine serum. Then, two different antibiotics were added at 37°C in a 5% CO2 incubator: penicillin (100 units/mL) and streptomycin (100 μg/mL). Next, we seeded the cells in a 96-well plate by a density of 1.0 x 10^4 cells / well at 37°C for 48 h under 5% CO2. The synthesized compounds with different concentrations were applied into the cell lines and incubated for 48 h. After 48 h, 20 μl of MTT solution (5mg/mL) was added and incubated for 4 h. Then, DMSO (100 μl) was added into each well to dissolve the formed purple formazan. After that, a colorimetric assay was measured and recorded at absorbance of 570 nm using a plate reader (EXL 800, USA). The relative cell viability in percentage was calculated as (A570 of treated samples/A570 of untreated sample) X 100.
(§4) S2: Biological evaluation
(§5) S2.1. In vitro cytotoxic activity
(§6) The anti-proliferative activity of the synthesized compounds was assessed using MTT assay protocol. A panel of human cancer cell lines namely, colorectal carcinoma (HCT-116) and hepatocellular carcinoma (HepG2) was used in this test. As we targeted the DNA and Topo […]
(§7) cell lines were got from ATCC (American Type Culture Collection) via the Holding company for biological products and vaccines (VACSERA, Cairo, Egypt). The anti -proliferative activities of the tested compounds were determined quantitatively as follows:
(§8) At first, the cells were cultured into a medium of RPMI-1640 with 10% fetal bovine serum.
(§9) Then, two different antibiotics were added at 37 ᵒC in a 5% CO2 incubator: penicillin (100 units/mL) and streptomycin (100 µg/mL). Next, we seeded the cells in a 96 -well plate by a density of 1.0 x 10^4 cells / well at 37 ᵒC for 48 h under 5% CO2. The synthesized compounds with different concentrations were applied into the cell lines and incubated for 48 h. After 48 h, 20 µl of MTT solution (5mg/mL) was added and incubated for 4 h. Then, DMSO (100 µl) was added into each well to dissolve the formed purple formazan. After that, a colorimetric assay was measured and recorded at absorbance of 570 nm using a plate reader (EXL 800, USA). The relative cell viability in percentage was calculated as (A570 of treated samples/A570 of untreated sample) X 100. […]

HCT-116 cell line [2] = experiment: MTT anti-proliferative assay, HCT-116; format: cell-based; settings: Homo sapiens, 48 h, three independent experiments, read-out: In vitro cytotoxicity IC50, HCT-116
Procedure: as §1, §2, §3, §4, §5, §6, §7, §8, §9

[3] = target: T1, Topoisomerase II (Topo II) (Homo sapiens, UniProt P11388); experiment: In vitro Topo II inhibitory assay (TopoGEN Topo II drug screening kit); format: biochemical
T1 construct: purchased TopoGEN, Inc., Columbus
Procedure: The reported method described by Patra et al was applied using Topo II drug screening kit (TopoGEN, Inc., Columbus).
A typical enzyme reaction was structured to determine Topo II activity. The reaction mixture included Topo II (2 μl), substrate super coiled pHot1 DNA (0.25 μg), 50 μg/ml test compound (2 μl), and assay buffer (4 μl). To start the reaction, the mixture was allowed to incubate in 37°C for 30 min. To terminate the reaction, a mixture of 10% sodium dodecylsulphate (2 μl) and proteinase K (50 μg/mL) was added at 37°C for 15 min. then incubated for 15 min at 37°C.
(§10) After that, the DNA was run on 1% agarose gel in BioRad gel electrophoresis system for 1–2 h followed by staining with GelRedTM stain for 2 h and destained for 15 min with TAE buffer. The gel was imaged via BioRad’s Gel DocTMEZ system. Both supercoiled and linear strands DNA were incorporated in the gel as markers for DNA-Topo II intercalators. The results of IC50 values were calculated using the GraphPad Prism version 7. Each reaction was performed in duplicate, and at least three independent determinations of each IC50 were made. […]
S2.2. Measurement of topoisomerase II Activity […]
analyzed for their Topo II inhibitory activities. The reported method described by Patra et al was applied using Topo II drug screening kit (TopoGEN, Inc., Columbus).
A typical enzyme reaction was structured to determine Topo II activity. The reaction mixture included Topo II (2 µl), substrate super coiled pHot1 DNA (0.25 µg), 50 µg/ml test compound (2 µl), and assay buffer (4 µl). To start the reaction, the mixture was allowed to incubate in 37 °C for 30 min. To terminate the reaction, a mixture of 10% sodium dodecylsulphate (2 µl) and proteinase K (50 µg/mL) was added at 37 °C for 15 min. then incubated for 15 min at 37 °C.
as §10

[4] = tested on: Activated Calf Thymus DNA; experiment: DNA/methyl green assay (DNA intercalation); format: binding; settings: for LogIC50 (best-fit value, DNA/Topo-II Inhibition (%) curve): log of drug concentration in uM
Procedure: The most promising members (13a, 14a, 16, 17, 18, 19, and 20) were further investigated for their binding affinity against DNA. […] The results of DNA-binding affinities were reported in Table 1 as IC50 values calculated from the concentration-inhibition response curve.
Activated Calf Thymus DNA (Merk, Germany) was treated with methyl green (Merk, Germany), then the synthesized compounds were applied to displace the methyl green dye, producing equivalent color.
After that, the DNA was run on 1% agarose gel in BioRad gel electrophoresis system for 1–2 h followed by staining with GelRedTM stain for 2 h and destained for 15 min with TAE buffer. The gel was imaged via BioRad’s Gel DocTMEZ system. Both supercoiled and linear strands DNA were incorporated in the gel as markers for DNA-Topo II intercalators. The results of IC50 values were calculated using the GraphPad Prism version 7. Each reaction was performed in duplicate, and at least three independent determinations of each IC50 were made.
S2.3. DNA/Methyl Green Assay […]
methyl green dye method described by Burres et al. Activated Calf Thymus DNA (Merk, Germany) was treated with methyl green (Merk, Germany), then the synthesized compounds were applied to displace the methyl green dye, producing equivalent color. […]

HepG2 cell line [5] = tested on: HepG2 cell line; parameters: method as in PMID 32882440; settings: previous work of the authors; read-out: In vitro cytotoxicity IC50, HepG2; cited from earlier work
HCT-116 cell line [6] = tested on: HCT-116 cell line; parameters: method as in PMID 32882440; settings: previous work of the authors; read-out: In vitro cytotoxicity IC50, HCT-116; cited from earlier work
[7] = target: T1, Topoisomerase II (Topo II); parameters: method as in PMID 32882440; settings: previous work of the authors; cited from earlier work
[8] = tested on: Activated Calf Thymus DNA; parameters: method as in PMID 32882440; settings: previous work of the authors; read-out: DNA/Methyl green (IC50); cited from earlier work
[9] = 50% inhibition concentration of DNA/methyl green assay, read-out: DNA/Methyl green (IC50)

T1 sequence (P11388 whole entry): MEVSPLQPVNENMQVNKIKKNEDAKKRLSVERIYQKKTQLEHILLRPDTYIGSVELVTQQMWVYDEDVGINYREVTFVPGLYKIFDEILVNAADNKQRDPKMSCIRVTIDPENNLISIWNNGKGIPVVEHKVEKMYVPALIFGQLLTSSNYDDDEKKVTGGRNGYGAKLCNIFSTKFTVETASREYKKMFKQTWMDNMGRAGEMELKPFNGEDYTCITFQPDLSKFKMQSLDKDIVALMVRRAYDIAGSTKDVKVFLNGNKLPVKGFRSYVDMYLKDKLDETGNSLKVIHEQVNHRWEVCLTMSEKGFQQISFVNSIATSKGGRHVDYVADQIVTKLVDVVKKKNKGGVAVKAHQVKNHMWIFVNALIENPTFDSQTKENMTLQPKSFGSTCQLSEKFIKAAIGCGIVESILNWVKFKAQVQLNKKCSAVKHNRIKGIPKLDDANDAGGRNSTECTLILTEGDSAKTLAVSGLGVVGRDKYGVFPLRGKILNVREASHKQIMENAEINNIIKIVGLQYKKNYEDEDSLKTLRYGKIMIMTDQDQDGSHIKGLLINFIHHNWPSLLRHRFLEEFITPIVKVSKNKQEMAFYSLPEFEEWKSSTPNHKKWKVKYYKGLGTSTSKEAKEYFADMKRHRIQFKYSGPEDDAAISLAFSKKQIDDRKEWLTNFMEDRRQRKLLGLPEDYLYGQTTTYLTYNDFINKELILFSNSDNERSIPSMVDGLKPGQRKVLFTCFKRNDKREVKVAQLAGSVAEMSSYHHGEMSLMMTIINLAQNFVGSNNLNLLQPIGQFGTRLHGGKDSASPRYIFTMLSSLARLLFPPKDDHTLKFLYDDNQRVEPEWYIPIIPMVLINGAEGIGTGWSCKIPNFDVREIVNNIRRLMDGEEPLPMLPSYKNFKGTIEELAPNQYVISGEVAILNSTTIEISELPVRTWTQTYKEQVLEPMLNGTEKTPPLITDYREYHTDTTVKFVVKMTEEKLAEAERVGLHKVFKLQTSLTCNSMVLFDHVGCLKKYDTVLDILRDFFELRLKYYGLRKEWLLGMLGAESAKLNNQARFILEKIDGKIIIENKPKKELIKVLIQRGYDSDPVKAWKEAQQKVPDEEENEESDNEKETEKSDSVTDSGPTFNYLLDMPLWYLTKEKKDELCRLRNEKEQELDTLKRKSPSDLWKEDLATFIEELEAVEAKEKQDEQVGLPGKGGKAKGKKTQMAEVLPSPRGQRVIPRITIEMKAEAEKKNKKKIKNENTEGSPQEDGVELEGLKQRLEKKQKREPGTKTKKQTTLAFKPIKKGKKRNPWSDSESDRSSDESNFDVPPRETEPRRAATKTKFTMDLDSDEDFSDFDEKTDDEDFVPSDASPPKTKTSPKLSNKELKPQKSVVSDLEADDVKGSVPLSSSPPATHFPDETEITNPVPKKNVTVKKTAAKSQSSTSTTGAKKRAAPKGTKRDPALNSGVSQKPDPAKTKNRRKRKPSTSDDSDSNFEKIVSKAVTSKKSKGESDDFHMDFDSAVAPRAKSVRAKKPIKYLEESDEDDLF

SMILES | IC50 (HepG2 cell line [1]) [µM] | IC50 (HCT-116 cell line [2]) [µM] | IC50 [3] [µM] | IC50 [4, 9] [µM] | LogIC50 (best-fit value, DNA/Topo-II Inhibition (%) curve) ([4]; supplement curve fit) | HillSlope (best-fit value, DNA/Topo-II Inhibition (%) curve) ([4]; supplement curve fit) | other results
CCCNc1nc2ccccc2c2nnc(-c3ccc(C)cc3)n12 [Compound 11a, N-Propyl-3-(p-tolyl)-[1,2,4]triazolo[4,3-c]quinazolin-5-amine] | 15.5 ± 1 | 8.42 ± 0.3 | – | – | – | – | –
CCCNc1nc2ccccc2c2nnc(-c3ccc(Cl)cc3)n12 [Compound 11b, 3-(4-Chlorophenyl)-N-propyl-[1,2,4]triazolo[4,3-c]quinazolin-5-amine] | 29.9 ± 1.3 | 25 ± 0.9 | – | – | – | – | –
Cc1ccc(-c2nnc3c4ccccc4nc(NCCO)n23)cc1 [Compound 12a, 2-((3-(p-Tolyl)-[1,2,4]triazolo[4,3-c]quinazolin-5-yl)amino)ethan-1-ol] | 18.8 ± 1.2 | 11.9 ± 0.3 | – | – | – | – | –
OCCNc1nc2ccccc2c2nnc(-c3ccc(Cl)cc3)n12 [Compound 12b, 2-((3-(4-Chlorophenyl)-[1,2,4]triazolo[4,3-c]quinazolin-5-yl)amino)ethan-1-ol] | 17.8 ± 0.9 | 7.03 ± 0.2 | – | – | – | – | –
Cc1ccc(-c2nnc3c4ccccc4nc(N(C)C)n23)cc1 [Compound 13a, N,N-Dimethyl-3-(p-tolyl)-[1,2,4]triazolo[4,3-c]quinazolin-5-amine] | 10.7 ± 0.6 | 11.6 ± 0.5 | 36.1 ± 1.9 | 52.9 ± 1.6 | 1.723 | 0.4587 | –
CN(C)c1nc2ccccc2c2nnc(-c3ccc(Cl)cc3)n12 [Compound 13b, 3-(4-Chlorophenyl)-N,N-dimethyl-[1,2,4]triazolo[4,3-c]quinazolin-5-amine] | 33.1 ± 1.7 | 16.9 ± 0.9 | – | – | – | – | –
Cc1ccc(-c2nnc3c4ccccc4nc(NC4CCCCC4)n23)cc1 [Compound 14a, N-Cyclohexyl-3-(p-tolyl)-[1,2,4]triazolo[4,3-c]quinazolin-5-amine] | 13 ± 0.5 | 7.66 ± 0.2 | 30.4 ± 1.8 | 22.5 ± 0.9 | 1.353 | 0.4583 | –
Clc1ccc(-c2nnc3c4ccccc4nc(NC4CCCCC4)n23)cc1 [Compound 14b, 3-(4-Chlorophenyl)-N-cyclohexyl-[1,2,4]triazolo[4,3-c]quinazolin-5-amine] | 29.5 ± 1.2 | 17.4 ± 0.4 | – | – | – | – | –
Cc1ccc(-c2nnc3c4ccccc4nc(N4CCOCC4)n23)cc1 [Compound 15a, 4-(3-(p-Tolyl)-[1,2,4]triazolo[4,3-c]quinazolin-5-yl)morpholine] | 20.4 ± 0.9 | 20 ± 0.4 | – | – | – | – | –
Clc1ccc(-c2nnc3c4ccccc4nc(N4CCOCC4)n23)cc1 [Compound 15b, 4-(3-(4-Chlorophenyl)-[1,2,4]triazolo[4,3-c]quinazolin-5-yl)morpholine] | 23.4 ± 0.9 | 21 ± 0.3 | – | – | – | – | –
OCCNc1nc2ccccc2c2nnc(C(F)(F)F)n12 [Compound 17, 2-((3-(Trifluoromethyl)-[1,2,4]triazolo[4,3-c]quinazolin-5-yl)amino)ethan-1-ol] | 5.65 ± 0.1 | 2.78 ± 0.1 | 17.7 ± 0.8 | 11.1 ± 0.7 | 1.045 | 0.4423 | –
CN(C)c1nc2ccccc2c2nnc(C(F)(F)F)n12 [Compound 18, N,N-Dimethyl-3-(trifluoromethyl)-[1,2,4]triazolo[4,3-c]quinazolin-5-amine] | 6.82 ± 0.2 | 4.17 ± 0.1 | 18.3 ± 0.8 | 12.5 ± 0.6 | 1.098 | 0.3961 | –
FC(F)(F)c1nnc2c3ccccc3nc(NC3CCCCC3)n12 [Compound 19, N-Cyclohexyl-3-(trifluoromethyl)-[1,2,4]triazolo[4,3-c]quinazolin-5-amine] | 8.91 ± 0.2 | 9.43 ± 0.3 | 18.7 ± 0.9 | 23.6 ± 1.3 | 1.373 | 0.3612 | –
FC(F)(F)c1nnc2c3ccccc3nc(N3CCOCC3)n12 [Compound 20, 4-(3-(Trifluoromethyl)-[1,2,4]triazolo[4,3-c]quinazolin-5-yl)morpholine] | 8.34 ± 0.3 | 4.61 ± 0.2 | 20.6 ± 0.9 | 34.5 ± 1.2 | 1.538 | 0.3425 | –
COc1cccc2c1C(=O)c1c(O)c3c(c(O)c1C2=O)C[C@@](O)(C(=O)CO)C[C@@H]3O[C@H]1C[C@H](N)[C@H](O)[C@H](C)O1 [Doxorubicin, reference compound] | 3.8 ± 0.1 | 1.87 ± 0.1 | – | 5.64 ± 0.1 | – | 0.3659 | IC50 ([4]; supplement curve fit, read-out: IC50 (best-fit value, DNA/Topo-II Inhibition (%) curve)): 5.64 µM
O=C(CSc1nnc2c3ccccc3c(=O)n(CC(=O)Nc3ccc(C(=O)O)cc3)n12)Nc1ccc(C(=O)O)cc1 [VIIa] | – | – | – | – | – | – | IC50 (HepG2 cell line [5]): 3.91 ± 0.15 µM; IC50 (HCT-116 cell line [6]): 2.62 ± 0.1 µM; IC50 [7]: 7.45 ± 0.44 µM; IC50 [8]: 48.3 ± 2.3 µM

Reference: PMC9886266, “New [1,2,4]triazolo[4,3-c]quinazolines as intercalative Topo II inhibitors: Design, synthesis, biological evaluation, and in silico studies” (PLOS ONE, 2023)
